Patent US20080317700A1 (priority 2006, published 2008)
Marks after values point to notes of the source that are not given here.

Experiments:
green algae CD 1 Red = format: cell-based; conditions: BG-11 agar, 1 mM herbicide, homopolymer as film cast in Petri dish
Description: (§1) BG-11 medium containing 1.5 wt. % agar was prepared and sterilized at 121° C., 1.05 kg cm^−2 for 20 minutes. Each herbicide tested was prepared as a 30 mM solution and added to the autoclaved agar medium to yield a 1 mM final concentration of the herbicide. A 20 mL aliquot of the liquid agar was transferred into a standard Petri dish (100×15 mm) and allowed to harden at room temperature. Cell suspensions of green algae CD 1 Red, cyanobacteria Synechocystos 6803 and Synechococcus 7002 were inoculated using a sterile inoculation loop. Dishes were stored at 25° C. under illumination with the cool-white fluorescent light having a constant light intensity of 5000 lx. The experiment for each herbicide was repeated five times. Control and treated cultures grew under the same conditions of temperature and photoperiod. In each experiment, the inhibition of growth in treated cultures was monitored relative to the growth in control samples using qualitative visual observation.
(§2) Additional experiments for testing the toxicity of the homopolymer of AA were implemented. Ten mL of aqueous polymer solution was placed on a sterile Petri dish and left at room temperature until all water was evaporated (3 days) to form a thin polymer film. Twenty mL of the liquid agar was transferred into the Petri dish and allowed to harden at room temperature. Cell suspensions of green algae CD 1 Red, cyanobacteria Synechocystos 6803 and Synechococcus 7002 were inoculated using a sterile inoculation loop. An analogous system containing no polymer film was used as a control for the experiment. Inhibition of growth in treated cultures was monitored relative to the growth in control samples using qualitative visual observations.

[1] = test system: cyanobacteria Synechocystos 6803; format: cell-based; conditions: Synechocystos 6803, BG-11 agar, 1 mM herbicide; homopolymer as film cast in Petri dish
Description: as §1, §2

[2] = test system: cyanobacteria Synechococcus 7002; format: cell-based; conditions: Synechococcus 7002, BG-11 agar, 1 mM herbicide; homopolymer as film cast in Petri dish
Description: as §1, §2

Solubility (qualitative) = format: physicochemical
E Coli DH 5α = assay: Liquid culture growth inhibition (optical density), E. Coli; format: cell-based; conditions: for Optical Density at 680 nm, measurements taken after 24 hours of growth: E. Coli, M9 minimum medium, 30 mM herbicide, control 1.30; for Toxicity towards E. Coli (liquid culture): inhibition only during first 10 hours, beyond 24 hours optical density matched controls
Description: Strains of green algae, cyanobacteria and E. Coli were used as test organisms. The green algae CD 1 Red and cyanobacteria Synechocystos 6803 were obtained from the collection of Prof. George Bullerjahn. Salt water strain of cyanobacteria Synechococcus 7002 was obtained from the collection of Prof. Michael McKay. E Coli DH 5α was obtained from Invitrogen Inc.
E. Coli was propagated heterotrophically in a 2 mL Eppendorf test-tube containing 1.5 mL of liquid M9 minimum medium (see Supporting Information) and kept on a rotating shaker (100 rpm) at 37° C. for 12 hours. The grown culture medium was sterilized at 121° C., 1.05 kg cm^−2 for 20 min. For the cell experiments, 100 mL aliquots of the M9 medium containing the E. Coli cells ([cells]initial=6×10^5 mL^−1) were distributed into sterile 250 mL Erlenmeyer flasks and treated with a stock herbicide solution to obtain a final concentration of 30 mM, followed by an incubation for 24 h on a rotating shaker (100 rpm) at 37° C. […] Control and treated cultures were grown under the same conditions of temperature and shaking. In each experiment, the inhibition of growth in treated cultures was monitored spectrophotometrically and compared to the growth in control samples.

| SMILES | Growth on agar plates compared to control (visual) (green algae CD 1 Red) | Growth on agar plates compared to control (visual) [1] | Growth on agar plates compared to control (visual) [2] | Solubility in organic solvents (Solubility (qualitative)) | Solubility in water (Solubility (qualitative)) | Optical Density at 680 nm, measurements taken after 24 hours of growth (E Coli DH 5α) | Toxicity towards E. Coli (liquid culture) (E Coli DH 5α) |
| --- | --- | --- | --- | --- | --- | --- | --- |
| C=CC(=O)N(CC(=O)O)CP(=O)(O)O [AA, N-Acryloyl-N-(phosphonomethyl)glycine] | complete inhibition of growth and bleaching | complete inhibition of growth and bleaching | complete inhibition of growth and bleaching | poorly soluble in most organic solvents | soluble in water | 1.24^c | do not display reasonable toxicity |
| O=C(O)CNCP(=O)(O)O [Glyphosate, N-(Phosphonomethyl)glycine, reference compound] | complete inhibition of growth and bleaching | complete inhibition of growth and bleaching | complete inhibition of growth and bleaching | poor solubility in organic solvents | – | 1.20^c | do not display reasonable toxicity |
